Results published in ChEMBL document CHEMBL5096184, “Structure activity relationship in β-carboline derived anti-malarial agents” (Eur J Med Chem, 2021).
In brackets after ≈: the same amount, converted by molar mass. Several values for one entry are separate records, joined by “and”; a condition that tells them apart may be missing. Equal entries are not always repeated. One block for each compound: values may come before it.

Legend:
Plasmodium = assay: Antimalarial activity against Plasmodium; type: functional, organism-based
Plasmodium falciparum [1] = assay: Antimalarial activity against Plasmodium falciparum D6; type: functional, organism-based
Plasmodium falciparum [2] = assay: Antimalarial activity against Plasmodium falciparum W2; type: functional, organism-based
[3] = Cytotoxicity against rat L6 cells assessed as reduction in cell viability; type: toxicity, cell-based
Plasmodium falciparum [4] = assay: Antimalarial activity against Plasmodium falciparum K1; type: functional, organism-based
Trypanosoma brucei = assay: Antitrypanosomal activity against Trypanosoma brucei rhodesiense STIB 900; type: functional, organism-based
[5] = Selectivity index, ratio of IC50 for rat L6 cells to IC50 for Plasmodium falciparum K1; type: toxicity; conditions: L6 cells versus Plasmodium falciparum K1, read-out: Ratio IC50
Trypanosoma cruzi = assay: Antitrypanosomal activity against Trypanosoma cruzi Tulahuen C2C4; type: functional, organism-based
Leishmania donovani = assay: Antileishmanial activity against Leishmania donovani MHOM-ET-67/L82; type: functional, organism-based
Plasmodium falciparum [6] = assay: Antiplasmodial activity against chloroquine sensitive Plasmodium falciparum K1; type: functional, organism-based
Plasmodium falciparum [7] = assay: Antiplasmodial activity against chloroquine sensitive Plasmodium falciparum FCCI-HN assessed as decrease in parasitemia level incubated for 24 hrs by Giemsa staining method; type: functional, organism-based
Plasmodium falciparum [8] = assay: Antimalarial activity against Plasmodium falciparum NF54 assessed as delayed-death phenotype incubated 72 to 96 hrs by SYBR green staining method; type: functional, organism-based
Plasmodium falciparum [9] = assay: Antimalarial activity against Plasmodium falciparum; type: functional, organism-based
Plasmodium falciparum [10] = assay: Antimalarial activity against chloroquine sensitive Plasmodium falciparum FcM29-Cameroon in human RBC; type: functional, organism-based; conditions: Erythrocyte
Plasmodium falciparum [11] = assay: Antimalarial activity against Plasmodium falciparum incubated for 72 hrs by SYBR green I-based assay; type: functional, organism-based

Structure (SMILES): Oc1cccc2c1[nH]c1c(C3=C[C@@]4(O)CC/C=C\CCCCN5CC[C@@H]3[C@]3(C[C@@H]6/C=C\CCCCN6[C@H]34)C5)nccc12
IC50 (Plasmodium): 6.1 ng/mL (≈ 0.0108 µM)
IC50 (Plasmodium falciparum [1]): 6 ng/mL (≈ 0.0106 µM)
IC50 (Plasmodium falciparum [2]): 8 ng/mL (≈ 0.0142 µM)

IC50 (Plasmodium falciparum [4]): 481 nM
IC50 (Trypanosoma brucei): 4.1 µM
IC50 (Trypanosoma cruzi): 7.5 µM
IC50 (Leishmania donovani): 17.7 µM
Structure (SMILES): Brc1ccc2[nH]c3c[n+](Cc4cccc5ccccc45)ccc3c2c1
IC50 [3]: 5.1 µM
selectivity ratio [5]: 11

Structure (SMILES): CC(=O)OC1=CO[C@@H](O[C@@H]2O[C@H](CO)[C@@H](O)[C@H](O)[C@H]2O)[C@H]2[C@@H]1C[C@@]13O[C@@H]2CN1CCC1c2ccccc2NC13 (stereo partly drawn)
IC50 (Plasmodium falciparum [6]): 6.77 µM

Structure (SMILES): C/C=C(/CO[C@@H]1O[C@H](CO)[C@@H](O)[C@H](O)[C@H]1O)c1cc2n(c(=O)c1CO)CCc1c-2[nH]c2ccccc12
IC50 (Plasmodium falciparum [7]): 9.7 µM

Structure (SMILES): O=c1c(O[C@@H]2OC[C@](O)(CO[C@@H]3O[C@H](CO)[C@@H](O)[C@H](O)[C@H]3O)[C@H](O)[C@H]2O)cc2nccc3c4ccccc4n1c23
IC50 (Plasmodium falciparum [6]): 25 µM

IC50 (Plasmodium falciparum [4]): 502 nM
IC50 (Trypanosoma brucei): 4.4 µM
IC50 (Trypanosoma cruzi): 7.9 µM
IC50 (Leishmania donovani): 46.4 µM
Structure (SMILES): Brc1cccc2c1[nH]c1c[n+](Cc3cccc4ccccc34)ccc12
IC50 [3]: 3.7 µM
selectivity ratio [5]: 7

Structure (SMILES): C/C=C1/COC(=O)c2c1cc1n(c2=O)CCc2c-1[nH]c1c(O[C@@H]3O[C@H](CO)[C@@H](O)[C@H](O)[C@H]3O)cccc21
IC50 (Plasmodium falciparum [7]): 42.1 µM

Structure (SMILES): O=C(O)C1Cc2c([nH]c3ccccc23)C(c2ccc(Cl)cc2Cl)N1 (stereo not drawn)
IC50 (Plasmodium falciparum [8]): 210 µM

Structure (SMILES): CC1(C)Cc2c([nH]c3ccccc23)C2(N1)C(=O)Nc1ccc(Cl)cc12 (racemic)
IC50 (Plasmodium falciparum [9]): 2.7 nM

Structure (SMILES): COC(=O)C1=CO[C@@H](C)[C@@H]2CN3CCc4c([nH]c5ccc(OC)cc45)[C@@H]3C[C@H]12 [ARICINE]
IC50 (Plasmodium falciparum [10]): 0.3 µg/mL and 690 nM

EC50 (Plasmodium falciparum [11]): > 50 µM
Structure (SMILES): COC(=O)[C@@H]1[C@H]2C[C@H]3c4[nH]c5ccccc5c4CCN3C[C@@H]2CC[C@@H]1O [YOHIMBINE]
